# According to ChEMBL document CHEMBL5252657, “Artefenomel Regioisomer RLA-3107 Is a Promising Lead for the Discovery of Next-Generation Endoperoxide Antimalarials” (ACS Med Chem Lett, 2023):
# pEC50: −log10 of the molar value. Active and inactive are the calls of the source. The calls are words filed in the database; no cut-off is given here.
# Tests used:
# Plasmodium falciparum = assay: Antiplasmodial activity against chloroquine-resistant ring stage Plasmodium falciparum W2 infected in human erythrocytes assessed as reduction in parasite growth incubated for 48 hrs by YOYO-1 dye based flow cytometric analysis; assay type: functional, organism-based; settings: W2, Erythrocyte
# [1] = Aqueous solubility of the compound in PBS at pH 7.4; assay type: physicochemical
# [2] = Stability in human liver microsomes assessed as intrinsic clearance at 1 uM measured upto 60 mins by LC-MS/MS analysis; assay type: ADME, Microsome; settings: read-out: CLH
# Plasmodium berghei [3] = assay: Antiplasmodial activity against Plasmodium berghei infected in Swiss Webster mouse model assessed as reduction in parasitemia at 80 mg/kg, po administered as single dose and measured after 11 days by Giemsa staining based microscopic analysis; assay type: functional, organism-based; settings: time 11.0 day
# Plasmodium berghei [4] = assay: Antiplasmodial activity against Plasmodium berghei infected in Swiss Webster mouse model assessed as reduction in parasitemia at 80 mg/kg, po administered as single dose and measured after 30 days by Giemsa staining based microscopic analysis; assay type: functional, organism-based; settings: time 30.0 day
# Plasmodium berghei [5] = assay: Antiplasmodial activity against Plasmodium berghei infected in Swiss Webster mouse model assessed as reduction in parasitemia at 30 mg/kg, po administered as single dose and measured after 11 days by Giemsa staining based microscopic analysis; assay type: functional, organism-based; settings: time 11.0 day
# Plasmodium berghei [6] = assay: Antiplasmodial activity against Plasmodium berghei infected in Swiss Webster mouse model assessed as reduction in parasitemia at 30 mg/kg, po administered as single dose and measured after 30 days by Giemsa staining based microscopic analysis; assay type: functional, organism-based; settings: time 30.0 day
# Plasmodium berghei [7] = assay: Antiplasmodial activity against Plasmodium berghei infected in Swiss Webster mouse model assessed as reduction in parasitemia at 20 mg/kg, po administered as single dose and measured after 30 days by Giemsa staining based microscopic analysis; assay type: functional, organism-based; settings: time 30.0 day
# Plasmodium berghei [8] = assay: Antiplasmodial activity against Plasmodium berghei infected in Swiss Webster mouse model assessed as reduction in parasitemia at 10 mg/kg, po administered once daily for 4 days and measured after 30 days by Giemsa staining based microscopic analysis; assay type: functional, organism-based; settings: time 30.0 day
# Plasmodium berghei [9] = assay: Antiplasmodial activity against Plasmodium berghei infected in Swiss Webster mouse model assessed as reduction in parasitemia at 6 mg/kg, po administered once daily for 4 days and measured after 11 days by Giemsa staining based microscopic analysis; assay type: functional, organism-based; settings: time 11.0 day
# Plasmodium berghei [10] = assay: Antiplasmodial activity against Plasmodium berghei infected in Swiss Webster mouse model assessed as reduction in parasitemia at 6 mg/kg, po administered once daily for 4 days and measured after 30 days by Giemsa staining based microscopic analysis; assay type: functional, organism-based; settings: time 30.0 day
# Plasmodium berghei [11] = assay: Antiplasmodial activity against Plasmodium berghei infected in Swiss Webster mouse model assessed as reduction in parasitemia at 4 mg/kg, po administered once daily for 4 days and measured after 11 days by Giemsa staining based microscopic analysis; assay type: functional, organism-based; settings: time 11.0 day
# Plasmodium berghei [12] = assay: Antiplasmodial activity against Plasmodium berghei infected in Swiss Webster mouse model assessed as reduction in parasitemia at 4 mg/kg, po administered once daily for 4 days and measured after 30 days by Giemsa staining based microscopic analysis; assay type: functional, organism-based; settings: time 30.0 day
# Plasmodium berghei [13] = assay: Antiplasmodial activity against Plasmodium berghei infected in Swiss Webster mouse model assessed as reduction in parasitemia at 2 mg/kg, po administered once daily for 4 days and measured after 11 days by Giemsa staining based microscopic analysis; assay type: functional, organism-based; settings: time 11.0 day
# Plasmodium berghei [14] = assay: Antiplasmodial activity against Plasmodium berghei infected in Swiss Webster mouse model assessed as reduction in parasitemia at 2 mg/kg, po administered once daily for 4 days and measured after 30 days by Giemsa staining based microscopic analysis; assay type: functional, organism-based; settings: time 30.0 day
# Plasmodium berghei [15] = assay: Antiplasmodial activity against Plasmodium berghei infected in Swiss Webster mouse model assessed as reduction in parasitemia at 40 mg/kg, po administered as single dose and measured after 11 days by Giemsa staining based microscopic analysis; assay type: functional, organism-based; settings: time 11.0 day
# Plasmodium berghei [16] = assay: Antiplasmodial activity against Plasmodium berghei infected in Swiss Webster mouse model assessed as reduction in parasitemia at 40 mg/kg, po administered as single dose and measured after 30 days by Giemsa staining based microscopic analysis; assay type: functional, organism-based; settings: time 30.0 day
# Plasmodium berghei [17] = assay: Antiplasmodial activity against Plasmodium berghei infected in Swiss Webster mouse model assessed as reduction in parasitemia at 10 mg/kg, po administered once daily for 4 days and measured after 11 days by Giemsa staining based microscopic analysis; assay type: functional, organism-based; settings: time 11.0 day
Structure (SMILES),pEC50 (Plasmodium falciparum),solubility [1] [µM],microsomal CLint at 1 µM [2] [µL/min/mg],Activity (Plasmodium berghei [3]),Activity (Plasmodium berghei [4]),Activity (Plasmodium berghei [5]),Activity (Plasmodium berghei [6]),Activity (Plasmodium berghei [7]),Activity (Plasmodium berghei [8]),Activity (Plasmodium berghei [9]),Activity (Plasmodium berghei [10]),Activity (Plasmodium berghei [11]),Activity (Plasmodium berghei [12]),Activity (Plasmodium berghei [13]),Activity (Plasmodium berghei [14]),Activity (Plasmodium berghei [15]),Activity (Plasmodium berghei [16]),Activity (Plasmodium berghei [17])
C[C@@H]1CC[C@H]2[C@@H](C)C(=O)O[C@@H]3O[C@@]4(C)CC[C@@H]1[C@]32OO4 [ARTEMISININ],7.76,–,–,–,–,–,–,–,–,–,–,–,–,–,–,–,–,–
O=C([O-])Cc1ccccc1Nc1c(Cl)cccc1Cl.[Na+] [DICLOFENAC SODIUM],–,199,–,–,–,–,–,–,–,–,–,–,–,–,–,–,–,–
c1cc([C@H]2CCC[C@@]3(C2)OOC2(O3)C3CC4CC(C3)CC2C4)ccc1OCCN1CCOCC1 (stereo not given in full),7.62,–,21.3,Active,Active,Active,inactive,inactive,inactive,inactive,inactive,inactive,inactive,inactive,inactive,–,–,–
c1cc([C@H]2CC[C@@]3(CC2)OOC2(O3)C3CC4CC(C3)CC2C4)ccc1OCCN1CCOCC1 (stereo not given in full),7.95,< 2.5,–,Active,Active,Active,Active,Active,Active,Active,Active,Active,–,–,–,Active,Active,Active
